What was measured:
Type in all cases: cell-based
TamR3 cells = assay: PrestoBlue viability assay, TamR3; details: 1 nM E2, 72 h treatment, ± SD of 3 biological replicates
Description: T47D, MCF7, TamR3, and MDA-MB-231 cells were starved for 72 h and then seeded into black clear-bottom 96-well plates (Corning Life Sciences Cat#3904) at 20,000 cells/well (T47D, MCF7, TamR3) or 5,000 cells/well (MDA-MB-231). […] 20 µl of PrestoBlue Cell Viability Reagent (Thermo Fisher A13262) was added to each well and incubated at 37 °C for 1 h. Fluorescence intensity was measured using the TECAN F500 plate reader with emission and excitation wavelengths of […], respectively.

ER D538G/F404L mutant = ER D538G/F404L mutant (Homo sapiens, UniProt P03372, D538G/F404L); assay: Transcriptional activity of fulvestrant resistant mutant ER; details: compared to DMSO
[1] = test system: ER transcriptional activity in T47D-KBluc cells; assay: Luciferase transcriptional assay; details: ER transcription, luciferase reporter, 1 nM E2, 24 h treatment, ± SD of 3 biological replicates
Description: T47D-KBluc cells or PC3m-luc cells were starved for 72 h and then seeded into 96-well plates at 20,000 or 5,000 cells/well, respectively. […] One day post-treatment, the media was removed, and cells were lysed with 65 µl of 1x passive lysis buffer (Promega #E1910). Following two freeze-thaw cycles, 20 µl of lysate were transferred to a white, 96-well flat bottom plate (Corning Life Sciences Cat#3912). 50 µl of luciferase reagent (Promega. Luciferase Assay System E1500) was added to each well, and luminescence was measured using the TECAN M200 Pro plate reader. E2 (1 nM), 4-hydroxytamoxifen (OHT) (4 nM), and DMSO (0.2%) were used as controls for this assay. […] E2 alone represented 100% transcriptional activation, while the 0.2% DMSO control represented 0% transcriptional activity. OHT was used as a positive control for an active compound.

[2] = target: T1, PR (ARR3tk-luc) in PC3 cells (Homo sapiens, UniProt P06401); assay: Nuclear receptor luciferase transcriptional assay, PR; details: 1 or 5 µM, 1 nM Levonorgestrel
T1 construct: expressed in transfected cells; host or cells: PC3 cells
Description: (§1) PC3 cells (androgen receptor (AR)-, glucocorticoid receptor (GR)[…], progesterone receptor (PR)-, ER-) were starved for 72 h then seeded into a 96-well plate at a density of 5,000 cells/well. 24 h later, cells were transfected with either ER, AR, GR, or PR and a luciferase plasmid (ERE-luc for ER and ARR3tk-luc for AR, GR, and PR). 24 h post-transfection, cells were simultaneously stimulated with 1 nM E2 for ER, 0.1 nM R1881 for AR, 1 nM Dexamethasone for GR, or 1 nM Levonorgestrel for PR, and treated with 1 or 5 µM of VPC-260724 24 h post-treatment, cells were lysed with 50 µl of passive lysis buffer (Promega #E1910). 20 µl of lysate was transferred to a white flat-bottom 96-well plate (Corning Life Sciences Cat#3912). Luminescence readings were obtained using the TECAN M200 Pro plate reader following the addition of 50 µl of luciferase reagent (Promega Luciferase Assay System E1500).

TamR3 spheroids = assay: Viability assay in 3D spheroids, TamR3; details: 1:2 dilution from 50 µM, 1 nM E2; read-out: IC50 on growth (area) of TamR3 spheroids
[3] = target: T2, ER (ERE-luc) in PC3 cells (Homo sapiens, UniProt P03372); assay: Nuclear receptor luciferase transcriptional assay, ER; details: 1 or 5 µM, 1 nM E2, PC3 cells
T2 construct: expressed in transfected cells; host or cells: PC3 cells
Description: as §1

MCF7 spheroids = assay: Viability assay in 3D spheroids, MCF7; details: Homo sapiens, 1:2 dilution from 50 µM, 1 nM E2, read-out: IC50 on growth (area) of MCF7 spheroids
Description: MCF7 and T47D cells were seeded into a Corning Costar ultra-low attachment, round-bottom, 96-well plate (Millipore Sigma, CLS7007-24EA) at a density of 2,500 cells/well in starvation media. After 4 days of starvation, the cells were treated with a 1:2 serial dilution of inhibitor from 50 µM to 0.2 µM in the presence of 1 nM estradiol. Images were taken every 6 h using the IncuCyte S3 system and spheroid sizes were determined with the IncuCyte analysis software.

[4] = target: T3, AR (ARR3tk-luc) in PC3 cells (Homo sapiens, UniProt P10275); assay: Nuclear receptor luciferase transcriptional assay, AR; details: 1 or 5 µM, 0.1 nM R1881, PC3 cells
T3 construct: expressed in transfected cells; host or cells: PC3 cells
Description: as §1

[5] = target: T4, ER-SRC3 interaction in TamR3 cells (Homo sapiens, UniProt P03372); assay: Proximity ligation assay (PLA), TamR3
T4 construct: endogenous in cells; host or cells: MCF7 or TamR3 cells
Description: MCF7 or TamR3 cells were starved for 72 h and then seeded onto PEI coated coverslips in a 6-well plate at 1 × 10^5 cells/well. For the E2 experiments, the cells were treated the following day with 10 µM of ER-AF2 inhibitor for 24 h, with E2 added 1 h before fixation. […] 24 h post-treatment, cells were fixed in methanol:acetone (3:1). Coverslips were then permeabilized with 0.05% Triton X-100 for 5 minutes at room temperature. The Duolink In Situ Detection Reagents Red kit from Millipore Sigma (DUO92008) was used for blocking and PLA according to the manufacturer’s protocol.

T4 sequence (P03372 whole entry): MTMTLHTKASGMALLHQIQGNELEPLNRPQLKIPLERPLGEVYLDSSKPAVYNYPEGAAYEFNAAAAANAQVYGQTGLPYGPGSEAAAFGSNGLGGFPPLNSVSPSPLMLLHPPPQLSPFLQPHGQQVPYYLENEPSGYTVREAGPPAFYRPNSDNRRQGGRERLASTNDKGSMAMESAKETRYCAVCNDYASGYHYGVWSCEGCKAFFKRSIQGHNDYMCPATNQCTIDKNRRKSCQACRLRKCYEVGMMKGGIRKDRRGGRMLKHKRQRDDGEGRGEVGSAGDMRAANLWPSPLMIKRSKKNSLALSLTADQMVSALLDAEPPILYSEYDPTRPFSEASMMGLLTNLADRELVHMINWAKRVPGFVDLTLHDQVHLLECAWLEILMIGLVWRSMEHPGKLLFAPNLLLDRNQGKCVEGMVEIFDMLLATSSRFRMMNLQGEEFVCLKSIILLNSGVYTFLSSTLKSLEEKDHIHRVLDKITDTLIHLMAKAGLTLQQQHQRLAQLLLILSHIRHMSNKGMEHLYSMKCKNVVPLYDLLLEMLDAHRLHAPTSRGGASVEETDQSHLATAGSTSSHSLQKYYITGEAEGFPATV
T1 sequence (P06401 whole entry): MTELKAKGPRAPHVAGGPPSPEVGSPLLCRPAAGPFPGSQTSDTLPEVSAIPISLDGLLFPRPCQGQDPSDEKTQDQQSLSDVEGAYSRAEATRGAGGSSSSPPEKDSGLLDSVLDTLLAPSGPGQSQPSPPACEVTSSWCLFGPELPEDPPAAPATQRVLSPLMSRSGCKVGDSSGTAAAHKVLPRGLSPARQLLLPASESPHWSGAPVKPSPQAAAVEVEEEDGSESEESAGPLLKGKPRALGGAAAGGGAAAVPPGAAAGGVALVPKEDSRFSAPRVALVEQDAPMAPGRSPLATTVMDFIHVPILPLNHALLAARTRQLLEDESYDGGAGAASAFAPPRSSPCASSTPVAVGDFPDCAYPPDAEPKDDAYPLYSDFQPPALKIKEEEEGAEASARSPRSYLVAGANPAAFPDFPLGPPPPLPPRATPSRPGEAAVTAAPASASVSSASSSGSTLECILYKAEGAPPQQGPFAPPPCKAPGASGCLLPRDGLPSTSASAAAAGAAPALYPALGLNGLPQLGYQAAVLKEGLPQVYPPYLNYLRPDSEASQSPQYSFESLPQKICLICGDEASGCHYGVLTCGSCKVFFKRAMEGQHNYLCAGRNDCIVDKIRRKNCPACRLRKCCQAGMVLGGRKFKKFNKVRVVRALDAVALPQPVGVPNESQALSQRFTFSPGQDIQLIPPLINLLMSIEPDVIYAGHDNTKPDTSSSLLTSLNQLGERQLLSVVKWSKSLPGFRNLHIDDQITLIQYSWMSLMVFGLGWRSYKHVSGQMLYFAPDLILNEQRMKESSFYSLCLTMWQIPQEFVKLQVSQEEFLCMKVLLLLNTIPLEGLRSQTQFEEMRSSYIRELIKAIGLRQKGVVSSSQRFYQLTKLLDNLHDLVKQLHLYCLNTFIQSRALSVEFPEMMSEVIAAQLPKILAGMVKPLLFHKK
T2 sequence (P03372 whole entry): as the sequence (P03372 whole entry) above
T3 sequence (P10275 whole entry): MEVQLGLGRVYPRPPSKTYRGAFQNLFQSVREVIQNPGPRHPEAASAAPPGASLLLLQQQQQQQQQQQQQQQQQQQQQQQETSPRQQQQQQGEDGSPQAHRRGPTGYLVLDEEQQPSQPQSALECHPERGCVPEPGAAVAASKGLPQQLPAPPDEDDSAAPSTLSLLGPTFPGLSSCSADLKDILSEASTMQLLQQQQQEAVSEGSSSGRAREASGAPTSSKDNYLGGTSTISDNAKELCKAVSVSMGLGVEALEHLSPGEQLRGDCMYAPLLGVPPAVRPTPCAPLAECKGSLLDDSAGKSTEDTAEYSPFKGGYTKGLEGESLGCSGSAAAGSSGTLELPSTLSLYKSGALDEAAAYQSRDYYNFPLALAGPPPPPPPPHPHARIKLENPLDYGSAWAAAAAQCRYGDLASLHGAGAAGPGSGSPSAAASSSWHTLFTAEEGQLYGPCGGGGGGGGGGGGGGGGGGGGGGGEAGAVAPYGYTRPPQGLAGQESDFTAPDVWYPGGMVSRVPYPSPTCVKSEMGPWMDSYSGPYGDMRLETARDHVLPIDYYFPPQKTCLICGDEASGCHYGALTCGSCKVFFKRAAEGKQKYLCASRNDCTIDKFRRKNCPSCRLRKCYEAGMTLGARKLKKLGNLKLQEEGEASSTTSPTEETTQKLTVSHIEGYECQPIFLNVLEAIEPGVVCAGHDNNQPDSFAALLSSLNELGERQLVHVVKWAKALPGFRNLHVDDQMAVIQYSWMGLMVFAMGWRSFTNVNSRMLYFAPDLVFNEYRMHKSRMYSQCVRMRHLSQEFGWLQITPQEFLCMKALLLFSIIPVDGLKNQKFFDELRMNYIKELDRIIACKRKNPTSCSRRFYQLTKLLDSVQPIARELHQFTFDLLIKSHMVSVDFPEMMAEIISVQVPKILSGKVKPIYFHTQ
Sequence of ER D538G/F404L mutant (P03372 whole entry F404L/D538G): as the sequence (P03372 whole entry) above, with F404L, D538G counted along it

Compound: Cc1cccn2c(CNCc3cccc(N(C)C)n3)cnc12 [VPC-260724]
- IC50 (TamR3 cells): 28.9 ± 4.55 µM
- Transcriptional activity of mutant ER D538G/F404L (ER D538G/F404L mutant): significantly reduced the transcriptional activity
- IC50 ([1]; 24 h): 5.7 µM
- IC50 [1]: 5.75 ± 1.13 µM
- Transcriptional activity of PR [2]: did not significantly impact
- IC50 (TamR3 spheroids): 27 ± 3.2 µM
- Transcriptional activity of ER [3]: dose-dependent inhibition
- IC50 (MCF7 spheroids): 15.6 ± 1.4 µM
- Transcriptional activity of AR [4]: did not significantly impact
- ER-SRC3 interaction in TamR3 in presence of tamoxifen ([5]; 10 µM with 1 µM Tamoxifen): reduced this interaction
- ER-SRC3 interactions (PLA signals per nuclei), TamR3 ([5]; 10 µM, 48 h, E2 stimulation): significantly reduced ER-SRC3 interactions
